The source of these data is patent publication US20040157793A1, “Modified nucleosides as antiviral agents” (priority 2002, published 2004).

Read-outs that look alike come from different tables or passages of the source.

Data set [1] has as its system HepG2 cells (mitochondrial COXII DNA).
For data set [2], the system named is HBV (3TC-resistant virus: rtV204) in HepAD79 cells. In words: microbe, parasite or virus in culture. Format: cell-based. The note with it: for HepAD79 log10 inhibition at 10 μM: HBV DNA in supernatant; for activity against the mutant virus (in words): rtV204 mutant virus. The protocol: (§1) HepAD38 and HepAD79 cells were seeded at 5×10^4 cells/well in a 96-well plate in seeding medium (DMEM/F12+10% FBS, 50 μg/ml penicillin, 50 μg/ml streptomycin, 100 μg/ml kanamycin, 400 μg/ml G418, and 0.3 μg/ml tetracycline) and incubated for 2 days at 37° C. in a 5% CO2, humidified atmosphere. The seeding media was removed, and cells were washed 3 times with PBS. Cells were then incubated with 200 μL assay medium (DMEM/F12+10% FBS+P/S/K) containing either (i) no compound, (ii) test compound, or (iii) control drugs at 10 μM. After an additional 5-day (HepAD38) or 13-day incubation (HepAD79, with renewal of the culture media at day 7), the cell supernatant was collected and stored at −70° C. until HBV DNA was quantified.
HBV DNA was extracted from supernatant using QiaAmp DNA blood Mini kit (Qiagen) and nucleic acids eluted in 200 μl Viral DNA was detected by quantitative PCR (Q-PCR). The TaqMan probe and primers were designed using the Primer Express software (Applied Biosystems) and cover highly conserved sequences complementary to the DNA sequences present in HBsAg. A total of 5 μl DNA was amplified using reagents and conditions as described by the manufacturer (Applied Biosystems).
Subsequently, the time course of viral induction in HepAD79 cells over a 13-day incubation period was investigated.
Therefore, the DNA extracted from the cell supernatant was also amplified by Q-PCR for the presence of cellular DNA (the rRNA gene).

Data set [3] concerns HBV (wild-type virus: rtM204) in HepAD38 cells. The data set is described as follows: Suppression of HBV production in HepAD38 cells, viral DNA in supernatant by Q-PCR. Format: cell-based. The conditions noted are these: for HepAD38 log10 inhibition at 10 μM: HBV DNA in supernatant; for EC90: read-out: HepAD38 EC90.
Source text: The HepAD38 (wild-type virus: rtM204) and HepAD79 (3TC-resistant virus: rtV204) (Stuyver L. J. et al. 2001, Hepatol., 33:751-757) cell lines replicate HBV under conditions that can be regulated with tetracycline (King R. W. et al. 2000, Methods in Molecular Medicine, Vol 24: Antiviral Methods and Protocols, 43-50 (eds: D. Kinchington & R. F. Schinazi), Humana Press Inc, Totowa, N.J.); Ladner, et al. 1997, Antimicrob. Agents Chemother., 41:1715-1720; Ladner S. K., et al. 1998a. Antivir. Chem. Chemother., 9:65-72; Ladner S. K., et al. 1998b. Antimicrob. Agents Chemother., 42:2128-31). In the presence of this drug, the cell supernatant is virtually free of viral DNA, but upon the removal of tetracycline from the culture medium, these cells secrete virus-like particle into the supernatant.
as §1
HBV DNA was extracted from supernatant using QiaAmp DNA blood Mini kit (Qiagen) and nucleic acids eluted in 200 μl Viral DNA was detected by quantitative PCR (Q-PCR). The TaqMan probe and primers were designed using the Primer Express software (Applied Biosystems) and cover highly conserved sequences complementary to the DNA sequences present in HBsAg. A total of 5 μl DNA was amplified using reagents and conditions as described by the manufacturer (Applied Biosystems). […]

[4] abbreviates: HepG2, 14-day treatment, 100 μM.
The mark [5] stands for this setting: HepAD79 cells, 13-day incubation.
The mark [6] stands for this setting: HepAD79 cells, 13-day incubation, read-out: HepAD79 EC90.
The mark [7] stands for this setting: HepAD38 cells, 5-day incubation.
Setting [8] is: HepAD38 cells, 5-day incubation, concentration reducing viral load by 90%, unit printed in text only.
The mark [9] stands for this setting: Hepatitis B virus, 312 h, read-out: HepAD79 EC90, HepAD79 cells, 13-day incubation.

With `Nc1ccn([C@H]2CC[C@@H](CO)O2)c(=O)n1` [ddC, 2′,3′-dideoxycytidine], in data set [1] (HepG2, 14-day treatment, 10 μM), the “Average ΔCt ± s.d. MitCoxII” value is recorded as 7.70 ± 0.08 and the “Average ΔCt ± s.d. rDNA” value is recorded as 0.92 ± 0.52. In data set [1] (human, 14 days, 10 μM), the “Average ΔΔCt ± s.d. MitCOXII-rDNA” value is listed as 6.78 ± 0.56 and the “Fold difference in COXII DNA levels normalized for rDNA (range) relative to control” value was 0.01 (0.01-0.01).

For `Nc1ccn([C@H]2O[C@@H](CO)C=C2F)c(=O)n1` [L-2′F-D4C], in data set [1] (HepG2, 14-day treatment, 10 μM), the “Average ΔCt ± s.d. MitCoxII” value was −0.36 ± 0.02, the “Average ΔCt ± s.d. rDNA” value is on record as −0.06 ± 0.27, the “Average ΔΔCt ± s.d. MitCOXII-rDNA” value is listed as −0.30 ± 0.28 and the “Fold difference in COXII DNA levels normalized for rDNA (range) relative to control” value is on record as 1.23 (1.02-1.50). Besides, in data set [1] (setting [4]), the “Average ΔCt ± s.d. MitCoxII” value stood at 0.33 ± 0.21, the “Average ΔCt ± s.d. rDNA” value was found to be 0.53 ± 0.60, the “Average ΔΔCt ± s.d. MitCOXII-rDNA” value is −0.20 ± 0.40 and the “Fold difference in COXII DNA levels normalized for rDNA (range) relative to control” value was 1.15 (0.87-1.52). Further, the “HepAD79 log10 inhibition at 10 μM” value in data set [2] (setting [5]) came out at 0.33 log10. Also, the EC90 in data set [2] (setting [6]) was > 10000 nM. In data set [2], the “activity against the mutant virus (in words)” value was “completely inactive”. In addition, in data set [3] (setting [7]), the “HepAD38 log10 inhibition at 10 μM” value turned out to be 1.77 ± 0.13 log10. The EC90 in data set [3] (setting [8]) came out at 740 nM. Also, in data set [3], the “inhibition of wild type HBV (in words)” value is “potent inhibitors”.

For the molecule `Nc1nc(=O)n([C@H]2O[C@@H](CO)C=C2F)cc1F` [L-2′F-D4FC], in data set [1] (HepG2, 14-day treatment, 10 μM), the “Average ΔCt ± s.d. MitCoxII” value is 0.05 ± 0.07, the “Average ΔCt ± s.d. rDNA” value is −0.23 ± 0.20, the “Average ΔΔCt ± s.d. MitCOXII-rDNA” value amounted to 0.28 ± 0.17 and the “Fold difference in COXII DNA levels normalized for rDNA (range) relative to control” value was 0.82 (0.73-0.92). Also, in data set [1] (setting [4]), the “Average ΔCt ± s.d. MitCoxII” value is reported as 0.83 ± 0.17, the “Average ΔCt ± s.d. rDNA” value is given as 0.85 ± 0.51, the “Average ΔΔCt ± s.d. MitCOXII-rDNA” value is −0.02 ± 0.64 and the “Fold difference in COXII DNA levels normalized for rDNA (range) relative to control” value is recorded as 1.01 (0.65-1.58). For the same molecule, in data set [2] (setting [5]), the “HepAD79 log10 inhibition at 10 μM” value is 0.23 log10. Besides, in data set [2] (setting [6]), the EC90 is > 10000 nM. The “activity against the mutant virus (in words)” value in data set [2] is “completely inactive”. In data set [3] (setting [7]), the “HepAD38 log10 inhibition at 10 μM” value stood at 1.91 ± 0.13 log10. For the same molecule, the EC90 in data set [3] (setting [8]) turned out to be 630 nM. Also, in data set [3], the “inhibition of wild type HBV (in words)” value is “potent inhibitors”.

In the case of `Nc1ncnc2c1ncn2CCOCP(=O)(O)O` [Adefovir], the “HepAD79 log10 inhibition at 10 μM” value in data set [2] (setting [5]) was 0.91 ± 0.11 log10. Besides, the EC90 in data set [2] (setting [9]) was > 10000 nM; in data set [2] (read-out: HepAD79 EC90, HepAD79 cells, 13-day incubation) it was ~10000 nM; in data set [3] (Hepatitis B virus, HePAD38, 120 h), > 10000 nM. The “HepAD38 log10 inhibition at 10 μM” value in data set [3] (setting [7]) is on record as 0.72 ± 0.12 log10.

On to `Nc1ccn([C@@H]2CS[C@H](CO)O2)c(=O)n1` [3TC, (−)-enantiomer of 2-hydroxymethyl-5-(cytosin-1-yl)-1,3-oxathiolane], for which the “HepAD79 log10 inhibition at 10 μM” value in data set [2] (setting [5]) amounted to 0.67 ± 0.03 log10. The EC90 in data set [2] (setting [9]) is > 10000 nM; in data set [3] (Hepatitis B virus, 120 h, HepAD38 cells, 5-day incubation, concentration reducing viral load by 90%) it was 50 nM. The “HepAD38 log10 inhibition at 10 μM” value in data set [3] (setting [7]) is reported as 1.97 ± 0.28 log10.

Consider `Nc1nc(=O)n([C@@H]2CC[C@H](CO)O2)cc1F` [L-FddC], for which, in data set [2] (setting [5]), the “HepAD79 log10 inhibition at 10 μM” value is on record as 0.02 log10. For the same molecule, the values for the EC90 in data set [2] (setting [6]) and in data set [3] (setting [8]) were > 10000 nM and 310 nM, respectively. In data set [3] (setting [7]), the “HepAD38 log10 inhibition at 10 μM” value is 2.03 log10.

`Nc1nc(=O)n(C2CSC(CO)O2)cc1F` (single isomer, unassigned; (-)) [(−)-FTC, (−)-enantiomer of 2-hydroxymethyl-5-(5-fluorocytosin-1-yl)-1,3-oxathiolane]: the “HepAD79 log10 inhibition at 10 μM” value in data set [2] (setting [5]) is listed as 0.28 log10. Moreover, the concentration for an effect of 90% (EC90) is > 10000 nM in data set [2] (setting [6]) and 1160 ± 660 nM in data set [3] (setting [8]). The “HepAD38 log10 inhibition at 10 μM” value in data set [3] (setting [7]) turned out to be 1.59 ± 0.14 log10.

In general, EC90 refers to the concentration at which the effect reaches the 90% level.
